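Dose response: 5 concentrations. Exposure: 48 h. Format: 96-well plates. Endpoint: linear interpolation; highest concentration if not reached. GI50 is the concentration that inhibits growth by half.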 The source made the active and inactive calls. Rule as the data show it: active = GI50 up to about 1.1 µM and inactive = higher.
How the values were obtained:
Experiment in all cases: NCI anticancer screen, dose series, 48 h
MCF7 = tested on: MCF7
T47D = tested on: T47D
BT-549 = tested on: BT-549
SF-295 = tested on: SF-295
LOX IMVI = tested on: LOX IMVI
RPMI-8226 = tested on: RPMI-8226
COLO 205 = tested on: COLO 205
SNB-75 = tested on: SNB-75
EKVX = tested on: EKVX
CCRF-CEM = tested on: CCRF-CEM
SK-MEL-2 = tested on: SK-MEL-2
SF-539 = tested on: SF-539
Hs-578T = tested on: Hs-578T
OVCAR-3 = tested on: OVCAR-3
NCI-H226 = tested on: NCI-H226
HOP-92 = tested on: HOP-92
MDA-MB-231 = tested on: MDA-MB-231
LXFL 529 = tested on: LXFL 529
M19-MEL = tested on: M19-MEL
HOP-18 = tested on: HOP-18

Measured: GI50

COC(=O)C1C(C(=O)OC)N(Cc2ccccc2)C(=O)N1Cc1ccccc1 (configuration not stated)
inactive: MCF7 7.5 µM | T47D 68.9 µM | BT-549 > 100 µM | SF-295 39.1 µM | LOX IMVI > 100 µM | RPMI-8226 35 µM | COLO 205 > 100 µM | SNB-75 > 100 µM | EKVX > 100 µM | CCRF-CEM 57.4 µM | SK-MEL-2 > 100 µM | SF-539 > 100 µM | Hs-578T > 100 µM | OVCAR-3 61.8 µM | NCI-H226 > 100 µM | HOP-92 > 100 µM

CCC(C(=O)c1ccc(OC)c(OC)c1)N(C(=O)C(F)(F)F)C(C)c1ccccc1 (configuration not stated)
inactive: MCF7 > 100 µM | MDA-MB-231 > 100 µM | T47D 91 µM | SF-295 > 100 µM | LOX IMVI > 100 µM | RPMI-8226 > 100 µM | COLO 205 > 100 µM | EKVX > 100 µM | CCRF-CEM > 100 µM | OVCAR-3 > 100 µM

NNc1nnc(-c2ccccc2)nc1Cc1ccccc1
inactive: LXFL 529 3.85 µM | LOX IMVI 3.56 µM | COLO 205 7.53 µM | EKVX 22.3 µM | CCRF-CEM 2.64 µM | SK-MEL-2 6.35 µM | SF-539 4.45 µM | M19-MEL 7.41 µM | OVCAR-3 3.61 µM | NCI-H226 2.37 µM | HOP-18 2.03 µM

NC(CCCCCP(=O)(O)O)C(=O)O (configuration not stated) [AP-7]
inactive: MDA-MB-231 > 100 µM | T47D 83.8 µM | BT-549 > 100 µM | SF-295 > 100 µM | LOX IMVI > 100 µM | RPMI-8226 > 100 µM | COLO 205 > 100 µM | SNB-75 > 100 µM | EKVX > 100 µM | CCRF-CEM > 100 µM | SK-MEL-2 > 100 µM | SF-539 > 100 µM | Hs-578T > 100 µM | OVCAR-3 > 100 µM | HOP-92 > 100 µM
